Data published in EP4737445A1, “NOVEL SATURATED HETEROCYCLE-SUBSTITUTED HETEROARYL-CARBONOHYDRAZONOYL DICYANIDE COMPOUND AND USE THEREOF” (Korea Institute of Science and Technology, priority 2023, dated 2025).

Key:
Format in all cases: in vitro ADME
[1] = Liver microsomal stability, rat; conditions: 1 µM compound; 0.5 mg/mL microsomes; NADPH; 30 minutes at 37°C
Experimental: Liver microsomal stability by the compounds prepared according to Examples 1 to 46 was confirmed. Specifically, four types of liver microsomes (human, dog, rat, and mouse each at 0.5 mg/mL), 0.1 M phosphate buffer solution (pH 7.4), and the compounds at 1 µM concentration were added and pre-incubated at 37°C for 5 minutes, and then NADPH generation system solution was added and incubated at 37°C for an additional 30 minutes. Thereafter, an acetonitrile solution containing an internal standard (chloropropamide) was added to terminate the reaction, and after centrifugation for 5 minutes (14,000 rpm, 4°C), the supernatant was injected into an LC-MS/MS system to analyze the substrate drug, thereby evaluating the metabolic stability of 8 compounds.
The amount of remaining substrate through the reaction was analyzed using a Shimadzu Nexera XR system and TSQ vantage (Thermo). A Kinetex XB-C18 (2.1 × 100 mm, 2.6 µm, particle size; Phenomenex, USA) was used as the HPLC column, and (A) distilled water containing 0.1% formic acid and (B) acetonitrile containing 0.1% formic acid were used as mobile phases. Analyst software (version 1.6.3) and Xcalibur (version 1.6.1) were used for data analysis. The calculated results are shown in Table 5 below: Liver microsomal stability data of novel compounds from […] (human, rat, and mouse).

[2] = target: T1, CYP1A2 (Homo sapiens, UniProt P05177); experiment: CYP isoenzyme activity inhibition in human liver microsomes, CYP1A2; conditions: 10 µM compound; human liver microsomes 0.25 mg/mL; relative to control without compound
T1 construct: human liver microsomes (0.25 mg/mL); from tissue; host or cells: human liver microsomes
T1 sequence (P05177 1-516): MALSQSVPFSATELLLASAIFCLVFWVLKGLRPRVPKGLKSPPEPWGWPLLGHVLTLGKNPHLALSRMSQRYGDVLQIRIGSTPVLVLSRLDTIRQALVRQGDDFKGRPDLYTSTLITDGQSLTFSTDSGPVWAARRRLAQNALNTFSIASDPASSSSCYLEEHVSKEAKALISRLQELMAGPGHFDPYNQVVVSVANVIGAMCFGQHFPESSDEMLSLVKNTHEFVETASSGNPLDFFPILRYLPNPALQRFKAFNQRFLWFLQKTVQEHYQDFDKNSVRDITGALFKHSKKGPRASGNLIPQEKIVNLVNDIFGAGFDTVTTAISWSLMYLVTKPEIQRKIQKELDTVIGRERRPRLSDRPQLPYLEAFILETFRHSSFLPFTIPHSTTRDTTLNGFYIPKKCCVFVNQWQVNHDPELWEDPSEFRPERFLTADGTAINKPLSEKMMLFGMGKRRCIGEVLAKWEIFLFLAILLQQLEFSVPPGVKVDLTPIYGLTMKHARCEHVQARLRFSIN
Experimental: (§1) The CYP isoenzyme activity inhibitory effect by the compounds prepared according to Examples 1 to 46 was confirmed. Specifically, human liver microsomes (0.25 mg/mL), 0.1 M phosphate buffer solution (pH 7.4), a substrate drug cocktail of five drug metabolizing enzymes (Phenacetin 50 µM, Diclofenac 10 µM, S-mephenytoin 100 µM, Dextromethorphan 5 µM, and Midazolam 2.5 µM), and the compounds were added at concentrations of 0 or 10 µM, respectively, and pre-incubated at 37°C for 5 minutes, and then NADPH generation system solution was added and incubated at 37°C for an additional 15 minutes. Thereafter, an acetonitrile solution containing an internal standard (Terfenadine) was added to terminate the reaction, and after centrifugation for 5 minutes (14,000 rpm, 4°C), the supernatant was injected into an LC-MS/MS system to simultaneously analyze the metabolites of the substrate drugs, thereby evaluating the drug metabolizing enzyme inhibitory activity.
(§2) The metabolites of each CYP isoenzyme marker drug generated through the reaction were analyzed using a Shimadzu Nexera XR system and TSQ vantage (Thermo). A Kinetex C18 (2.1 × 100 mm, 2.6 µm, particle size; Phenomenex, USA) was used as the HPLC column, and (A) distilled water containing 0.1% formic acid and (B) acetonitrile containing 0.1% formic acid were used as mobile phases, and a gradient program as shown in Table 6 below was applied.
(§3) The generated metabolites were quantified using MRM (Multiple Reaction Monitoring) quantitative mode, and Xcalibur (version 1.6.1) was used for data analysis. To show the CYP isoenzyme activity inhibitory effect of the novel compounds prepared according to the Examples of the disclosure, the % activity of CYP isoenzymes relative to the control group without compound addition is shown in Table 6 below. Additionally, to confirm the difference in effect according to substituents, Comparative Compounds 1 and 5, which are two compounds that share a similar parent nucleus structure with Compounds 1 to 46 of the disclosure while Cy is substituted with aromatic heteroaryl instead of saturated heterocyclyl, were selected as comparative compounds and their activities are shown together.

[3] = target: T2, CYP2C9 (Homo sapiens, UniProt P11712); experiment: CYP isoenzyme activity inhibition in human liver microsomes, CYP2C9; conditions: 10 µM compound; human liver microsomes 0.25 mg/mL; relative to control without compound
T2 construct: human liver microsomes (0.25 mg/mL); from tissue; host or cells: human liver microsomes
Experimental: as §1, §2, §3

[4] = target: T3, CYP2C19 (Homo sapiens, UniProt P33261); experiment: CYP isoenzyme activity inhibition in human liver microsomes, CYP2C19; conditions: 10 µM compound; human liver microsomes 0.25 mg/mL; relative to control without compound
T3 construct: human liver microsomes (0.25 mg/mL); from tissue; host or cells: human liver microsomes
Experimental: as §1, §2, §3

[5] = target: T4, CYP2D6 (Homo sapiens, UniProt P10635); experiment: CYP isoenzyme activity inhibition in human liver microsomes, CYP2D6; conditions: 10 µM compound; human liver microsomes 0.25 mg/mL; relative to control without compound
T4 construct: human liver microsomes (0.25 mg/mL); from tissue; host or cells: human liver microsomes
Experimental: as §1, §2, §3

[6] = target: T5, CYP3A4 (Homo sapiens, UniProt P08684); experiment: CYP isoenzyme activity inhibition in human liver microsomes, CYP3A4; conditions: 10 µM compound; human liver microsomes 0.25 mg/mL; relative to control without compound
T5 construct: human liver microsomes (0.25 mg/mL); from tissue; host or cells: human liver microsomes
Experimental: as §1, §2, §3

T2 sequence (P11712 whole entry): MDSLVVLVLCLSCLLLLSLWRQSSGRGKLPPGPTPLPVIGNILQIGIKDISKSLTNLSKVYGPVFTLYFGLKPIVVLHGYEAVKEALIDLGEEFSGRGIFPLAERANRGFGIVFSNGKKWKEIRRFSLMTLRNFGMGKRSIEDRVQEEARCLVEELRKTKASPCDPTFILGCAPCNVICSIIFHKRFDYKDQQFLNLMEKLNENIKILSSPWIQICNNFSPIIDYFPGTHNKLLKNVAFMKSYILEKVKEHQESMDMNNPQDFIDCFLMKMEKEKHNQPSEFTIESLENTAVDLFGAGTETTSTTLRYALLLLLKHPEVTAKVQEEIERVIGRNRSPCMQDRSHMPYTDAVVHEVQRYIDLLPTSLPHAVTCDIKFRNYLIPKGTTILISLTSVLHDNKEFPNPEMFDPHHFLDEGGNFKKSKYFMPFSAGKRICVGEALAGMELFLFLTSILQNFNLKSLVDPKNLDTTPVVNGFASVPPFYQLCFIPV
T4 sequence (P10635 whole entry): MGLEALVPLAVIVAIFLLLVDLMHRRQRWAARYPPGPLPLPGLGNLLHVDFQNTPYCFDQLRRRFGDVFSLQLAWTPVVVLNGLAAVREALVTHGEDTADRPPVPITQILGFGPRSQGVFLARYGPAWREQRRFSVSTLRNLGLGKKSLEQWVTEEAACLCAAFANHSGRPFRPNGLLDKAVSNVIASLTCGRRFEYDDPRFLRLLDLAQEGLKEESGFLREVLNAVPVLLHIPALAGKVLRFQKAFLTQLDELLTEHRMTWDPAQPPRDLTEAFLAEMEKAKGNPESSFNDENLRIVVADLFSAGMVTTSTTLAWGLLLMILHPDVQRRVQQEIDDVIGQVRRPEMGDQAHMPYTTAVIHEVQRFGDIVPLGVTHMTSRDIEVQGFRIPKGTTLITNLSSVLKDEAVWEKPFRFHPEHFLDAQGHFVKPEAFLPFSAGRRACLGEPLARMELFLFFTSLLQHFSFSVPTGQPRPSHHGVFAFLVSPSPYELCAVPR
T3 sequence (P33261 whole entry): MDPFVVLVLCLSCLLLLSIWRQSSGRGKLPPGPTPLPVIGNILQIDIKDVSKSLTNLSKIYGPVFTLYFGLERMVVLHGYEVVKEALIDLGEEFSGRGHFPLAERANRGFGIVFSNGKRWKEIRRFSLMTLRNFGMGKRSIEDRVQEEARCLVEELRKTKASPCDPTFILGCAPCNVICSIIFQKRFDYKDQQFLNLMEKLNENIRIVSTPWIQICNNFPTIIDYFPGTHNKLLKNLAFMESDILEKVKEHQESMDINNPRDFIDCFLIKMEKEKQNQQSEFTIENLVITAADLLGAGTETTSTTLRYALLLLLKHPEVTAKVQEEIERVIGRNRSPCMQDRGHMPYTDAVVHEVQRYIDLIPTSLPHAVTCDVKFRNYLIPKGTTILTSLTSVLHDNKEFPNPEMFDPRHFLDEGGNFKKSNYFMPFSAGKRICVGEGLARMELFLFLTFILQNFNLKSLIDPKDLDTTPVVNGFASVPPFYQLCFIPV
T5 sequence (P08684 whole entry): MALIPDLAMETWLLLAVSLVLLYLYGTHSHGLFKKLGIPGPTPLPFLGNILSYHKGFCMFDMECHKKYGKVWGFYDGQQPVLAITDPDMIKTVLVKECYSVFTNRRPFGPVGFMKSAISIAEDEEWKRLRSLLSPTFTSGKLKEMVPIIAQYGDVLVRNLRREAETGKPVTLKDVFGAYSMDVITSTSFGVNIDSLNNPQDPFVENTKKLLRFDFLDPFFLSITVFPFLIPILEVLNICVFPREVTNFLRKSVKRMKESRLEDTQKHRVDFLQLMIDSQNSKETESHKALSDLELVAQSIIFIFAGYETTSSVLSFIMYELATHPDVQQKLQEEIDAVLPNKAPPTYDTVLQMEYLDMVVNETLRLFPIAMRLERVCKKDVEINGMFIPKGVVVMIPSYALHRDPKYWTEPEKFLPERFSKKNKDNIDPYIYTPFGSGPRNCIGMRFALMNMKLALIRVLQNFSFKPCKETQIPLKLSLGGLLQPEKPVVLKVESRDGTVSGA

SMILES | Rat microsomes (% remaining) [1] [% remaining] | CYP1A2 (% activity) [2] [% activity] | CYP2C9 (% activity) [3] [% activity] | CYP2C19 (% activity) [4] [% activity] | CYP2D6 (% activity) [5] [% activity] | CYP3A4 (% activity) [6] [% activity]
COC1CCN(c2nc3ccc(NN=C(C#N)C#N)cc3s2)CC1 [Compound 9, (2-(4-methoxypiperidin-1-yl)benzo[d]thiazol-6-yl)carbonohydrazonoyl dicyanide] | 17.7 | 68.9 | 60.7 | 86.9 | > 100 | 66.1
CC1CN(C(=O)Nc2nc3ccc(NN=C(C#N)C#N)cc3s2)CC(C)O1 (stereo not drawn) [Compound 39, (2-(2,6-dimethylmorpholine-4-carboxamido)benzo[d]thiazol-6-yl)carbonohydrazonoyl dicyanide] | 82.3 | 84 | 42.9 | 78.6 | 85.9 | 56.5
CC1CN(c2nc3ccc(NN=C(C#N)C#N)cc3s2)CCO1 (stereo not drawn) [Compound 12, (2-(2-methylmorpholino)benzo[d]thiazol-6-yl)carbonohydrazonoyl dicyanide] | 70.1 | 74.9 | 65.1 | 84.8 | 94.8 | 78.9
CC(=O)N1CCN(c2nc3ccc(NN=C(C#N)C#N)cc3s2)CC1 [Compound 30, (2-(4-acetylpiperazin-1-yl)benzo[d]thiazol-6-yl)carbonohydrazonoyl dicyanide] | 91.9 | 88.9 | 86.2 | 86.2 | 88.9 | 74.6
CN1CCN(c2nc3ccc(NN=C(C#N)C#N)cc3s2)CC1 [Compound 8, (2-(4-methylpiperazin-1-yl)benzo[d]thiazol-6-yl)carbonohydrazonoyl dicyanide] | 76.6 | 91.8 | > 100 | > 100 | > 100 | 95
Cn1c(N2CCOCC2)nc2ccc(NN=C(C#N)C#N)cc21 [Compound 5, (1-methyl-2-morpholino-1H-benzo[d]imidazol-6-yl)carbonohydrazonoyl dicyanide] | 77.8 | 84.3 | 98 | 90.2 | > 100 | 86.1
CC1CN(c2nc3ccc(NN=C(C#N)C#N)cc3s2)CC(C)O1 (stereo not drawn) [Compound 10, (2-(2,6-dimethylmorpholino)benzo[d]thiazol-6-yl)carbonohydrazonoyl dicyanide] | 84.8 | 68.4 | 76.8 | 83.6 | 93.8 | 74.5
N#CC(C#N)=NNc1ccc2nc(N3CCOCC3)sc2c1 [Compound 2, (2-morpholinobenzo[d]thiazol-6-yl)carbonohydrazonoyl dicyanide] | 55.2 | 81.7 | 95.1 | 96.7 | > 100 | 95.7
CC1COCCN1c1nc2ccc(NN=C(C#N)C#N)cc2o1 (stereo not drawn) [Compound 16, (2-(3-methylmorpholino)benzo[d]oxazol-6-yl)carbonohydrazonoyl dicyanide] | 49.6 | 99.9 | 87 | > 100 | 92.1 | 96.7
COC1CCN(c2nc3ccc(NN=C(C#N)C#N)cc3o2)CC1 [Compound 17, (2-(4-methoxypiperidin-1-yl)benzo[d]oxazol-6-yl)carbonohydrazonoyl dicyanide] | 59.3 | 83.2 | 73.8 | 90 | 89.5 | 87.1
N#CC(C#N)=NNc1ccc2nc(NC(=O)N3CC4CCC(C3)O4)sc2c1 [Compound 40, (2-(8-oxa-3-azabicyclo[3.2.1]octane-3-carboxamido)benzo[d]thiazol-6-yl)carbonohydrazonoyl dicyanide] | 87.7 | 80.2 | 46.9 | 65.7 | 88.6 | 75.5
CC1CN(c2nc3ccc(NN=C(C#N)C#N)cc3o2)CC(C)O1 (stereo not drawn) [Compound 18, (2-(2,6-dimethylmorpholino)benzo[d]oxazol-6-yl)carbonohydrazonoyl dicyanide] | 72.9 | 98.9 | > 100 | 100 | 97 | 94.6
